tested on: Pseudomonas sp. strain MHP41; experiment: Antibiotic sensitivity of strain MHP41; format: cell-based

| SMILES | sensitivity or resistance of the strain to the antibiotic |
| --- | --- |
| [H]/N=C(/N)N[C@H]1[C@H](O)[C@@H](O)[C@H](O[C@@H]2O[C@@H](C)[C@](O)(C=O)[C@H]2O[C@@H]2O[C@@H](CO)[C@H](O)[C@@H](O)[C@@H]2NC)[C@@H](N/C(N)=N\[H])[C@@H]1O [streptomycin] | sensitive |
| CC1(C)S[C@@H]2[C@H](NC(=O)C(C(=O)O)c3ccccc3)C(=O)N2[C@H]1C(=O)O (stereo partly drawn) [carbamicillin] | sensitive |
| CC1(C)S[C@@H]2[C@H](NC(=O)[C@H](N)c3ccccc3)C(=O)N2[C@H]1C(=O)O [ampicillin] | natural resistance |
